Experimental findings from paper PMC12257390, “Characterization of Clinically Evaluated Small-Molecule Inhibitors of PD-L1 for Immunotherapy” (ACS Medicinal Chemistry Letters, 2025) are described below.

Assay [1] deals with T1, PD-L1 (Homo sapiens, UniProt Q9NZQ7).
T1 construct: gene CD274
As to the kind of experiment: X-ray co-crystal structure ([…] Å), 1H NMR binding; IC50 from HTRF PD-1/PD-L1 disruption.

In assay [2] the target is T1, PD-L1. Described as above. The source holds these as a separate data set.

Read-outs that look alike come from different tables or passages of the source.

T1 sequence (Q9NZQ7 19-290): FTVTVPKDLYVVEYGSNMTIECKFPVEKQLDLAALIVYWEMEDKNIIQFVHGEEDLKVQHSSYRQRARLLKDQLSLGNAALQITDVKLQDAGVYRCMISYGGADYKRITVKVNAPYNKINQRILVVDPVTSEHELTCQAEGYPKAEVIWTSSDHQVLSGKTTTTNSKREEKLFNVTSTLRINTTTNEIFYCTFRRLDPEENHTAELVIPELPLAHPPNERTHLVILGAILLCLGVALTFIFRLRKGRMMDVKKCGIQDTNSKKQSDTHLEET

Take `Cc1c(Nc2nccc3cc(CN4CC[C@@H](O)C4)cnc23)cccc1-c1cccc(-c2nc3cc(CN4CC[C@@H](C(=O)O)C4)cc(C#N)c3o2)c1C` [INCB086550]: the IC50 on PD-L1 [1] amounted to 2.59 ± 0.09 nM. `Cc1c(C=Cc2cc(CNC(C)(CO)C(=O)O)ccc2C(F)(F)F)cccc1-c1ccc2c(c1)OCCO2` (centres unmarked) [MAX-10181]: the half-maximal inhibitory concentration (IC50) on PD-L1 [2] amounted to 6.88 ± 0.12 nM.

As a reminder, the IC50 is the concentration that gives 50% inhibition. Read a low IC50 as inhibition by little substance.
